Experiment: Storage stability of quantitated schisandrin (HPLC)
Format: physicochemical
Source text: A high performance liquid chromatography (HPLC) method was developed to quantitate the schisandrin compound contained in the Schisandra chinensis extract. Schisandrin (≧98%) obtained from Sigma-Aldrich was used as a control. The content of the schisandrin compound in the Schisandra chinensis seed oil extracts ranged from about 4.2 to 4.9% depending on the extraction for example, prior to standardization.
A High-performance liquid chromatography method has been developed to quantify the schisandrin in the extract:
Chromatographic Conditions: • Column: Agilent Zorbax Eclipse XDB-C 18, 150 mm length and 4.6 mm internal diameter filled with octadecylsilyl silica gel, 5 micron particle size; • Flow rate: 1 ml/min; • Detection at wavelength: 250 nm; • Volume of injection sample: 10 μl; • Column temperature: 25° C.

Storage stability of quantitated amount of schisandrin (12 months, 30 degrees Celsius and 65% relative humidity): stable and unchanged | Storage stability of quantitated amount of schisandrin (24 months, 25 degrees Celsius and 60% relative humidity): stable and unchanged | Storage stability in other studies using the formulation tested in Example 1 (conditions not stated): stable for at least or about one year | Storage stability of quantitated amount of schisandrin (six months, 40 degrees Celsius and 75% relative humidity): stable and unchanged
Compound: COc1cc2c(c(OC)c1OC)-c1c(cc(OC)c(OC)c1OC)C[C@](C)(O)[C@@H](C)C2 [schisandrin compound, schisandrin]
